Data: BindingDB's records for doi:10.1021/jm4013906 (Bristol-Myers Squibb, 2013)

test: Antagonist activity at P2Y1 receptor in platelet-enriched human plasma assessed as 10 uM ADP-induced platelet aggregation preincubated for 1 min followed by ADP induction measured at 5 mins by aggregometric analysis

Row | IC50 | Compound
1 | 4 µM | CC(C)(C)CN1CCC2(CC1)CN(c1ccccc1NC(=O)Nc1ccc(OC(F)(F)F)cc1)c1cnccc12
2 | 6.3 µM | CC(C)(C)CN1CCC2(CC1)CCN(c1ccccc1NC(=O)Nc1ccc(OC(F)(F)F)cc1)c1ccccc12
3 | 15.1 µM | CC(C)(C)CN1CCC2(CC1)CN(c1ccccc1NC(=O)Nc1ccc(OC(F)(F)F)cc1)c1cccnc12
4 | > 40 µM | CC(C)(C)CN1CCC2(CC1)CN(c1ccccc1NC(=O)Nc1ccc(OC(F)(F)F)cc1)c1ncccc12
5 | 18.5 µM | CC(C)(C)CN1CCC2(C1)CN(c1ccccc1NC(=O)Nc1ccc(OC(F)(F)F)cc1)c1ccccc12 (stereo not drawn)
6 | > 40 µM | CC(C)(C)CN1CCCC2(C1)CN(c1ccccc1NC(=O)Nc1ccc(OC(F)(F)F)cc1)c1ccccc12 (stereo not drawn)
7 | 54.2 µM | COC(=O)N1CCC2(CC1)CN(c1ccccc1NC(=O)Nc1ccc(OC(F)(F)F)cc1)c1ccccc12
8 | 18.6 µM | O=C(Nc1ccc(OC(F)(F)F)cc1)Nc1ccccc1N1CC2(CCN(Cc3ccccc3)CC2)c2ccccc21
9 | > 40 µM | CC(C)(C)CN1CCC2(CC1)CN(c1ccccc1NC(=O)Nc1ccc(OC(F)(F)F)cc1)c1ccncc12

Row | Compound | IC50
10 | CC(C)(C)CN1CCC2(CC1)CN(c1ccccc1NC(=O)Nc1ccc(OC(F)(F)F)cc1)c1ccccc12 | 4.9 µM
11 | CC(C)CN1CCC2(CC1)CN(c1ccccc1NC(=O)Nc1ccc(OC(F)(F)F)cc1)c1ccccc12 | 8.8 µM
12 | CC(C)N1CCC2(CC1)CN(c1ccccc1NC(=O)Nc1ccc(OC(F)(F)F)cc1)c1ccccc12 | 29.2 µM

test: Antagonist activity at P2Y1 receptor in platelet-enriched human plasma assessed as 2.5 uM ADP-induced platelet aggregation preincubated for 1 min followed by ADP induction measured at 5 mins by aggregometric analysis

Row | IC50 | Compound
13 | > 10 µM | CC1(C)CN(c2ccccc2NC(=O)Nc2ccc(OC(F)(F)F)cc2)c2ccccc2O1
14 | 8.5 µM | CC1(C)CN(c2ccccc2NC(=O)Nc2ccc(OC(F)(F)F)cc2)c2ccccc21
15 | > 10 µM | O=C(Nc1ccc(OC(F)(F)F)cc1)Nc1ccccc1N1CCCc2ccccc21
16 | 2.2 µM | CC1(C)CCN(c2ccccc2NC(=O)Nc2ccc(OC(F)(F)F)cc2)c2ccccc21
17 | 2 µM | O=C(Nc1ccc(OC(F)(F)F)cc1)Nc1ccccc1N1CC2(CCCCC2)c2ccccc21
18 | 2.4 µM | O=C(Nc1ccc(OC(F)(F)F)cc1)Nc1ccccc1N1CC2(CCCC2)c2ccccc21
19 | > 10 µM | CC(C)NC(=O)N1CCC2(CC1)CN(c1ccccc1NC(=O)Nc1ccc(OC(F)(F)F)cc1)c1ccccc12
20 | > 10 µM | O=C(Nc1ccc(OC(F)(F)F)cc1)Nc1ccccc1N1CC2(CCN(C(=O)OCc3ccccc3)CC2)c2ccccc21
21 | > 10 µM | O=C(Nc1ccc(OC(F)(F)F)cc1)Nc1ccccc1N1CC2(CC2)c2ccccc21
22 | > 10 µM | CC1(C)CN(c2ncccc2NC(=O)Nc2ccc(OC(F)(F)F)cc2)c2ccccc21
23 | 25.4 µM | COCCN1CCC2(CC1)CN(c1ccccc1NC(=O)Nc1ccc(OC(F)(F)F)cc1)c1ccccc12
24 | 11.1 µM | CC1(C)CCN(c2ncccc2NC(=O)Nc2ccc(OC(F)(F)F)cc2)c2ccccc21
25 | 5.8 µM | COC(=O)N1CCC2(CC1)CN(c1ccccc1NC(=O)Nc1ccc(OC(F)(F)F)cc1)c1ccccc12
26 | > 10 µM | O=C(Nc1ccc(OC(F)(F)F)cc1)Nc1ccccc1N1CCOc2ccccc21
27 | > 10 µM | CN1CCN(c2ccccc2NC(=O)Nc2ccc(OC(F)(F)F)cc2)c2ccccc21
28 | 3.3 µM | O=C(Nc1ccc(OC(F)(F)F)cc1)Nc1ccccc1N1CC2(CCN(Cc3ccccc3)CC2)c2ccccc21
29 | > 10 µM | CC1CCN(c2ccccc2NC(=O)Nc2ccc(OC(F)(F)F)cc2)c2ccccc21 (stereo not drawn)
30 | 4.1 µM | O=C(Nc1ccc(OC(F)(F)F)cc1)Nc1ccccc1N1CC2(CCC2)c2ccccc21

Row | Compound | IC50
31 | CC(C)(C)CN1CCC2(CC1)CN(c1ccccc1NC(=O)Nc1ccc(OC(F)(F)F)cc1)c1ccccc12 | 0.67 µM
32 | CC(C)CN1CCC2(CC1)CN(c1ccccc1NC(=O)Nc1ccc(OC(F)(F)F)cc1)c1ccccc12 | 2.2 µM
33 | CC(C)N1CCC2(CC1)CN(c1ccccc1NC(=O)Nc1ccc(OC(F)(F)F)cc1)c1ccccc12 | 4.7 µM
